This passage reports TGI and GI50 results from PubChem BioAssay (NCI).

Values joined by “and” are separate entries in the source; they are usually repeats but may differ in a detail not shown here. Equal values may be shown once.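 96-well plates; 48 h exposure; 5 concentrations. Endpoints by linear interpolation between flanking doses. Not reached: highest tested concentration assigned. GI50: concentration for 50% inhibition of growth. At the TGI there is no net growth.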

Holding throughout (assay): growth of human tumour cells (NCI), 48 h
Assay [1] deals with EKVX NSCLC.
Assay [2] has as its system SK-OV-3 ovarian.
Assay [3] relates to HOP-92 NSCLC.
In assay [4] the test system is UACC-257 melanoma.
Assay [5] concerns HS 578T breast.
Assay [6] relates to U251 CNS.
Assay [7] deals with ACHN renal.
The subject of assay [8] is OVCAR-5 ovarian.
Assay [9] relates to SK-MEL-28 melanoma.
Assay [10] deals with MDA-MB-435.
In assay [11] the test system is RPMI-8226 leukemia.
The test system of assay [12] is HOP-62 NSCLC.
For assay [13], the system named is K-562 leukemia.
For assay [14], the system named is MALME-3M melanoma.
Assay [15] has as its system LOX IMVI melanoma.
Assay [16] relates to T-47D breast.

In the case of `NC(CCC(=O)NC(CSC(=O)N(O)c1ccc(Cl)cc1)C(=O)NCC(=O)O)C(=O)O` (centres undefined), the TGI in assay [1], in assay [2], in assay [3], in [4], in [5] and in assay [6] was over 0.5 µM each time. Further, the TGI in assay [7], in [8], in assay [9], in [10], in assay [11] and in assay [12] was over 0.5 µM in each case. In [13], this compound gave a TGI of over 0.5 µM.
As for `COc1ccc(N2C(=O)C(C#N)=C(SC)C(C#N)C2=O)cc1` (centres undefined), the TGI is over 100 µM in [14]; over 100 µM in assay [1]; over 100 µM in [2]; over 100 µM in assay [3]; over 100 µM in assay [4]; 89.8 µM in assay [5]. Also, the TGI in assay [6], in [7], in assay [8], in assay [15], in assay [10] and in assay [12] was over 100 µM throughout. Also, the TGI in assay [13] was over 100 µM.
For `Cc1ccc(S(=O)(=O)Nn2c(C)cc3ccc(S(=O)(=O)Nc4ccccc4[N+](=O)[O-])cc3c2=O)cc1`, the TGI in assay [14], in assay [1], in assay [2], in assay [3], in [4] and in [5] was over 100 µM in each case. Besides, the TGI in assay [6], in assay [7], in assay [8], in [15], in assay [9] and in [10] was over 100 µM each time. Moreover, the TGI in assay [11], in assay [12] and in assay [13] was over 100 µM in each case.
`CC(C)[Si](Oc1cc2c3c(ccc2c(O)c1[C@@H](C)CO[Si](C)(C)C(C)(C)C)C(C)(C)CCC3)(C(C)C)C(C)C`: the TGI in assay [14], in assay [1], in assay [2], in assay [3], in assay [4] and in [5] was over 100 µM throughout. Moreover, the TGI in [6], in assay [7], in assay [8], in assay [15], in assay [9] and in [10] was over 100 µM in each case. Besides, the TGI in assay [11], in [12] and in assay [13] was over 100 µM throughout.
Consider `c1ccc(N=C2C(=Nc3ccccc3)N(C3CCCCC3)C(=NC3CCCCC3)N2c2ccccc2)cc1`, for which the TGI in assay [14], in assay [1], in [16], in [3], in assay [4] and in [5] was over 100 µM throughout. The TGI in assay [6], in assay [7], in [8], in assay [9], in assay [11] and in assay [12] was over 100 µM in each case. This compound displayed a TGI in [13] of over 100 µM.
As for `CC(C)(C)c1cc(Oc2ccc(C#N)c(C#N)c2)cc(C(C)(C)C)c1`, the TGI in assay [14], in assay [1], in [2], in assay [3], in assay [4] and in assay [6] was over 100 µM each time. For the same compound, the TGI was over 100 µM in [7]; over 100 µM in assay [8]; 94.6 µM in [15]; over 100 µM in [9]; over 100 µM in [11]; over 100 µM in assay [12]. In assay [13], this compound returned a TGI of over 100 µM.
As to `O=C(Cc1nc2ccc(C(=O)c3ccccc3)cc2[nH]c1=O)C(=O)Nc1ccc(C(F)(F)F)cc1[N+](=O)[O-]`, the TGI in assay [14], in [1], in [2], in assay [3], in [4] and in assay [6] was over 100 µM in each case. The TGI in assay [7], in assay [8], in assay [15], in assay [9], in assay [11] and in assay [12] was over 100 µM each time. In addition, the TGI in assay [13] was over 100 µM.
As to `COc1ccccc1NC(=O)CC(=O)n1nc(-c2ccccc2)c(N=Nc2ccccc2[N+](=O)[O-])c1-c1ccccc1`, the TGI in assay [14], in assay [1], in assay [2], in [3], in [4] and in assay [6] was over 100 µM in each case. The TGI in assay [7], in [8], in [15], in assay [9], in [11] and in [12] was over 100 µM throughout. Further, in [13], the TGI was over 100 µM.
As to `CSC1=N/C(=C\c2ccccc2)C(=O)N1CN1CCOCC1`, the TGI in [14], in assay [1], in assay [2], in assay [3], in [5] and in assay [6] was over 100 µM throughout. Moreover, the TGI in assay [7], in [8], in assay [15], in [9], in [10] and in assay [11] was over 100 µM throughout. For the same compound, the TGI in [12] and in assay [13] was over 100 µM each time.
With `COc1ccc2[nH]c3c(C)c4ccnc(NCCCN(C)CCCN)c4c(C)c3c2c1`, the TGI in assay [14] was 1.19 µM; in assay [1] it was 0.538 µM; in assay [16] it was 0.814 µM; in [2], 2.47 µM; in assay [4], 2.95 µM; in [7] it was 0.514 µM. The TGI in assay [8] is 0.725 µM; in [9], 1.61 µM; in assay [10], 0.401 µM; in assay [11], over 100 µM; in assay [12], 0.385 µM; in assay [13], over 100 µM.
As for `COc1cc(CC(C)N[C@@H](C)c2ccccc2)cc(OC)c1` (some centres undefined), the GI50 in assay [1] was 12.2 µM and > 100 µM; in [2] it was 12.9 µM and > 100 µM; in assay [8], 12.9 µM and > 100 µM; in assay [12], 11.2 µM and > 100 µM. Further, the TGI in [1] is 26.4 µM and > 100 µM; in assay [16] it was 18.3 µM and > 100 µM; in assay [2] it was 25.5 µM and > 100 µM; in assay [3], 10.8 µM and > 100 µM; in assay [4] it was 19.5 µM and > 100 µM; in assay [5] it was over 100 µM. In addition, the TGI was 19.8 µM and > 100 µM in assay [6]; 21.1 µM and > 100 µM in assay [7]; 26 µM and > 100 µM in [8]; 11.9 µM and > 100 µM in assay [9]; 19.6 µM and > 100 µM in [10]; 11.6 µM and > 100 µM in [11]. Further, in [12], the TGI was 24.2 µM and > 100 µM.
On to `CC(C)(C)OC(=O)N(CCCCNC(=O)c1ccccc1)CCCNC(=O)c1ccccc1`, for which the TGI in [1], in assay [16], in [2], in assay [3], in [4] and in assay [5] was over 100 µM in each case. For the same compound, the TGI in assay [6], in [7], in assay [8], in assay [9], in assay [10] and in assay [11] was over 100 µM throughout. The TGI in assay [12] and in assay [13] was over 100 µM in each case.
As to `Nc1nc(NNc2ccccc2F)cc(=O)[nH]1`, the TGI in assay [14], in [1], in assay [4], in [5], in [6] and in assay [7] was over 100 µM throughout. For the same compound, the TGI in assay [8], in assay [15], in [9], in [10], in assay [11] and in assay [12] was over 100 µM in each case. This compound showed a TGI in assay [13] of over 100 µM.
Consider `Cn1c2c(c3ccccc31)CC(=O)N1CCCC(C1)CC21OCCO1` (centres undefined), for which the TGI in assay [14], in [1], in assay [16], in assay [2], in assay [3] and in [4] was over 100 µM throughout. Besides, the TGI in assay [6], in assay [7], in [8], in assay [15], in [9] and in assay [10] was over 100 µM throughout. Further, the TGI in [11], in [12] and in assay [13] was over 100 µM in each case.
As to `N#Cc1nc(-c2ccccc2O)oc1N`, the TGI in [1], in assay [2], in assay [3], in assay [4], in [5] and in [6] was over 100 µM in each case. Also, the TGI in [7], in assay [8], in assay [15], in assay [9], in assay [10] and in [11] was over 100 µM in each case. The TGI in assay [12] and in assay [13] was over 100 µM throughout.
On to `CCOC(=O)C1=COC(C)(C)CC1=O`, for which the TGI in assay [1], in assay [16], in [2], in assay [4], in assay [5] and in [6] was over 100 µM in each case. Moreover, the TGI in assay [7], in [8], in [9], in [10], in assay [11] and in assay [12] was over 100 µM throughout. Besides, the TGI in assay [13] was over 100 µM.
For `O=C(OCC(Cl)(Cl)Cl)N1CC[C@@H](C2CCCCC2)C1`, the TGI in [1] is 51.7 µM; in assay [16] it was over 100 µM; in [2], over 100 µM; in [4], over 100 µM; in [6] it was 18.9 µM; in assay [7] it was 49.7 µM. The TGI in [8] is 50.6 µM; in [15], over 100 µM; in assay [12], 38 µM; in assay [13], 50.1 µM.
Take `O=C(/C=C/c1cc(F)ccc1F)OCCc1ccccc1`: the TGI in assay [14], in [1], in assay [3], in assay [4], in assay [5] and in assay [6] was over 100 µM each time. The TGI in assay [7], in assay [8], in assay [9], in assay [10], in assay [11] and in assay [12] was over 100 µM in each case. In assay [13], this compound yielded a TGI of over 100 µM.
In the case of `Cc1ccc(S(=O)(=O)N/N=C2/C3C(CC2(C)C)C2(C)CCCC3(C)C2O)cc1` (centres undefined), the TGI was 45.4 µM in assay [14]; over 100 µM in assay [1]; 54.5 µM in assay [16]; 44.8 µM in assay [2]; 33.3 µM in assay [3]; 33.3 µM in assay [4]. Also, the TGI is 55.6 µM in assay [5]; 32.1 µM in assay [6]; 27.4 µM in assay [15]; 40.4 µM in assay [9]; over 100 µM in assay [11]; over 100 µM in [12]. In addition, in [13], the TGI was over 100 µM.
For `N#Cc1c(N)nc2c(N=Nc3ccccc3)c(N)nn2c1Nc1ccccc1`, the TGI in [14] is 49.7 µM; in [1], over 100 µM; in assay [3], 31.6 µM; in assay [4], 38.9 µM; in assay [6], 24.6 µM; in assay [7], 61.9 µM. The TGI in assay [8] was found to be 57.7 µM; in assay [15] it was 10.5 µM; in assay [9] it was 24.2 µM; in assay [10], 39.6 µM; in assay [11], 16.2 µM; in [12], 39.1 µM. Also, the TGI in assay [13] was over 100 µM.
